Legend:
[1] = test system: polyglutamine luciferase reporter; assay: Screening: polyglutamine luciferase reporter assay in NUGC3 cells (luminescence % of DMSO); type: cell-based, human; details: NUGC3 cells, luminescence relative to DMSO, concentration not given
YAP/TAZ = assay: Screening: YAP/TAZ activity reporter (8xGTIIC plasmid) assay in NUGC3 cells (luminescence % of DMSO); type: cell-based, human; details: NUGC3 cells, luminescence relative to DMSO, concentration not given
[2] = polyglutamine luciferase reporter
[3] = YAP/TAZ activity reporter (8×GTIIC)

SMILES	Polyglutamine [1, 2] [%]	8×GTIIC (YAP/TAZ; [3]) [%]	Polyglutamine [1] [%]	8×GTIIC (YAP/TAZ) [%]
CCS(=O)(=O)C1CCC(CS(=O)(=O)c2ccc(C)cc2C)CC1 (stereo not shown) [SA075]	110.7	95.02		
Cc1ccc(S(=O)(=O)C2CCC(CS(=O)(=O)c3ccccc3)CC2)cc1 (stereo not shown) [SA040]	44.87	51.54		
CCCCCCS(=O)(=O)c1ccc(C(C)(C)C)cc1 [PVZF2020]	36.76	45.04		
CCC(C)(C)c1ccc(S(=O)(=O)CCCC2=CCCCC2)cc1 [PVZF2044]	45.42	55.05		
CC(C)(C)c1cc(C(C)(C)C)cc(S(=O)(=O)CC2CCC(S(C)(=O)=O)CC2)c1 (stereo not shown) [SA070]	59.04	109.7		
CC(C)(C)c1ccc(S(=O)(=O)CCc2ccccc2)cc1 [PVZF2023]	58.32	66.96		
CCc1ccc(S(=O)(=O)CC2CCC(S(C)(=O)=O)CC2)cc1CC (stereo not shown) [SA063]	78.75	93.35		
CC(C)(C)c1ccc(S(=O)(=O)CCC2CCCCC2)cc1 [PVZF2024]	63.4	55.45		
CCC1CCC(C(C)S(=O)(=O)c2c(C)cc(C(C)(C)C)cc2C)CC1 (stereo not shown) [SA068]	81.58	110.2		
CCc1cc(OC)cc(C2=NC(S(=O)(=O)c3ccccc3)C(c3cccc(CC)c3CC)C2)c1 (stereo not shown) [PVZF0053]			68.68	58.96
CCc1cc(CC)cc(C2=NC(S(=O)(=O)c3ccc(C)cc3)C(c3cccc(CC)c3CC)C2)c1 (stereo not shown) [PVZF0055]			46.42	45.63
Cc1ccc(S(=O)(=O)CC2CCC(C3CC3)CC2)cc1 (stereo not shown) [SA067]	75.3	75.49		
Cc1cc(C)c(S(=O)(=O)CC2CC(C)(C)CC(C)(C)C2)cc1C [SA009]	73.02	80.29		
CCc1cccc(C2CC(c3ccc(C)cc3)=NC2S(C)(=O)=O)c1 (stereo not shown) [PVZF0061]			69.94	121.9
CCc1ccc(C2CC(c3ccc(C)cc3)=NC2S(C)(=O)=O)cc1 (stereo not shown) [PVZF0083]			57.89	104.5
Cc1cc(C)c(C)c(S(=O)(=O)CC2CCC(S(C)(=O)=O)CC2)c1C (stereo not shown) [SA093]	38.43	39.06		
Cc1ccc(C)c(S(=O)(=O)CC2CCC(C3CC3)CC2)c1 (single isomer, unassigned) [SA005]	76.08	90.78		
CC(C)(C)c1ccc(S(=O)(=O)CCCC2CCCCC2)cc1 [PVZF2026]	31.89	34.4		
CCc1cccc(C2CC(c3ccc(C)cc3)=NC2S(=O)(=O)c2ccc(C)cc2)c1CC (stereo not shown) [PVZF0057]			50.71	61.81
Cc1ccc(C2=NC(S(=O)(=O)c3ccc(C)cc3)C(c3ccccc3)C2)cc1 (stereo not shown) [PVZF0072]			60.73	76.88
CCS(=O)(=O)C1CCC(CS(=O)(=O)c2cc(C(C)C)cc(C)c2C)CC1 (stereo not shown) [SA077]	65.09	66.59		
CCCC(=O)C1CCC(CS(=O)(=O)c2ccc(C)cc2C)CC1 (stereo not shown) [SA025]	49.45	46.27		
CCc1cccc(C2CC(c3ccccc3)=NC2S(=O)(=O)c2ccccc2C)c1CC (stereo not shown) [PVZF0050]			58.65	106.2
Cc1ccc(C)c(S(=O)(=O)C2CCC(CS(=O)(=O)c3ccccc3)CC2)c1 (single isomer, unassigned) [SA015]	60.36	69.21		
Cc1cc(C)c(S(=O)(=O)CC2CC(C)(C)CC(C)(C)C2)cc1C [SA002]	49.58	47.03		
Cc1cccc(S(=O)(=O)CC2CCC(C3CC3)CC2)c1C (stereo not shown) [SA030]	86.26	73.56		
CCCCCCS(=O)(=O)c1ccc(-c2ccccc2)cc1 [PVZF2029]	49.5	49.28		

SMILES	Polyglutamine [1, 2] [%]	8×GTIIC (YAP/TAZ; [3]) [%]	Polyglutamine [1] [%]	8×GTIIC (YAP/TAZ) [%]
O=S(=O)(CC1CCC(C2CC2)CC1)c1ccc2c(c1)CCC2 (stereo not shown) [SA091]	88.36	101.3		
Cc1ccc(C(C)(C)C)cc1S(=O)(=O)C1CCC(NS(=O)(=O)c2ccccc2)CC1 (stereo not shown) [SA019]	55.62	66.45		
O=S(=O)(CCc1ccccc1)c1ccc(C2CCCCC2)cc1 [PVZF2068]	53.21	74.24		
Cc1cc(C)c(S(=O)(=O)CC2CC(C)(C)CC(C)(C)C2)cc1C [SA008]	51.03	57.06		
CC(C)(C)c1cccc(S(=O)(=O)C2CCC(CS(=O)(=O)c3ccccc3)CC2)c1 (stereo not shown) [SA016]	43.01	53.02		
CCCC(=O)C1CCC(CS(=O)(=O)c2ccc3c(c2)CCC(=O)C3)CC1 (stereo not shown) [SA022]	102.2	66.88		
Cc1cc(C)cc(S(=O)(=O)CC2CCC(C3CC3)CC2)c1 (stereo not shown) [SA032]	80.29	88.64		
CC(C)c1ccc(S(=O)(=O)CC2CCC(C3CC3)CC2)cc1 (stereo not shown) [SA058]	76.81	35.45		
CCc1cccc(C2CC(c3ccc(C)cc3)=NC2S(C)(=O)=O)c1CC (stereo not shown) [PVZF0079]			53.25	79.74
O=S(=O)(CCC1CCCCC1)c1ccc2ccccc2c1 [PVZF2015]	51.29	51.25		
Cc1ccc(C)c(S(=O)(=O)CC2CCC(S(C)(=O)=O)CC2)c1 (stereo not shown) [SA064]	54.39	64.48		
Cc1c(C)c(C)c(S(=O)(=O)CC2CC(C)(C)CC(C)(C)C2)c(C)c1C [SA028]	60.03	59.49		
Cc1c(C)c(C)c(S(=O)(=O)CC2CCC(S(C)(=O)=O)CC2)c(C)c1C (stereo not shown) [SA080]	55.01	62.45		
CCc1cccc(C2CC(c3cccc(C)c3)=NC2S(=O)(=O)c2ccccc2)c1CC (stereo not shown) [PVZF0049]			67.85	91.32
CC1(C)CC(CS(=O)(=O)c2ccc(C3CCCCC3)cc2)CC(C)(C)S1 [PVZF2072]	80.1	83.58		
CC(=O)C1CC(c2ccc(C)cc2)CC1c1ccc2ccccc2c1 (stereo not shown) [PZ177]	43.89	71.59		
CC(C)(C)c1cc(C(C)(C)C)cc(S(=O)(=O)CC2CCC(C3CC3)CC2)c1 (stereo not shown) [SA066]	66.16	64.4		
Cc1ccc(S(=O)(=O)CC2CCC(S(C)(=O)=O)CC2)c(C)c1 (stereo not shown) [SA076]	98.03	64.29		
Cc1cc(C)c(S(=O)(=O)CC2CC(C)(C)CC(C)(C)C2)cc1C [SA007]	55.29	56.96		
O=S(=O)(CCc1ccccc1)c1ccc2ccccc2c1 [PVZF2014]	40.32	59.08		
CCc1cccc(C2CC(c3ccc(C)cc3)=NC2S(=O)(=O)c2ccccc2)c1CC (stereo not shown) [PVZF0056]			48.33	53.76
CCCc1cc(C)c(C(C)C)cc1S(=O)(=O)CC1CC(C)(C)CC(C)(C)C1 [SA003]	37.79	46.84		
CCc1ccccc1C1CC(c2ccc(C)cc2)=NC1S(=O)(=O)c1ccccc1 (stereo not shown) [PVZF0063]			43.6	56.3
Cc1c(C)c(C)c(S(=O)(=O)CC2CCC(C3CC3)CC2)c(C)c1C (stereo not shown) [SA037]	42.93	35.53		
CC(C)c1cc(C(C)C)c(S(=O)(=O)CC2CCCC2)c(C(C)C)c1 [PVZF2002]	36.92	38.2		
CCc1ccc(C2=CC(C(C)=O)C(c3ccc(CC)c(C)c3)C2)cc1 (stereo not shown) [PZ173]	67.61	160.5		

— patent US20230210834A1, “RNA METHYLTRANSFERASE INHIBITOR, SCREENING METHOD THEREFOR, ANTI-CANCER AGENT EFFICACY ASSESSMENT MARKER, AND KIT FOR EFFECTIVELY PREDICTING FTSJ1 INHIBITOR” (National University Corporation Okayama University, priority 2019, published 2023)
